Consider eight compounds from ChEMBL document CHEMBL1124647, “Conformational analysis and molecular modeling of 1-phenyl-, 4-phenyl-, and 1-benzyl-1,2,3,4-tetrahydroisoquinolines as D1 dopamine receptor ligands” (J Med Chem, 1989).

One assay concerns the target D(1A) dopamine receptor (Homo sapiens, UniProt P21728). Put plainly: Binding potency of compound for Dopamine receptor D1 by displacing [3H]SCH-23390 radioligand.
The next assay concerns the target D(2) dopamine receptor (Homo sapiens, UniProt P14416). Put plainly: Binding potency of compound for Dopamine receptor D2 by displacement of [3H]spiperone.
Assay [1] can be described thus: DSAC inhibitory potency obtained by the conversion of [32P]-ATP to [32P]-cAMP.

D(1A) dopamine receptor, sequence (P21728 whole entry): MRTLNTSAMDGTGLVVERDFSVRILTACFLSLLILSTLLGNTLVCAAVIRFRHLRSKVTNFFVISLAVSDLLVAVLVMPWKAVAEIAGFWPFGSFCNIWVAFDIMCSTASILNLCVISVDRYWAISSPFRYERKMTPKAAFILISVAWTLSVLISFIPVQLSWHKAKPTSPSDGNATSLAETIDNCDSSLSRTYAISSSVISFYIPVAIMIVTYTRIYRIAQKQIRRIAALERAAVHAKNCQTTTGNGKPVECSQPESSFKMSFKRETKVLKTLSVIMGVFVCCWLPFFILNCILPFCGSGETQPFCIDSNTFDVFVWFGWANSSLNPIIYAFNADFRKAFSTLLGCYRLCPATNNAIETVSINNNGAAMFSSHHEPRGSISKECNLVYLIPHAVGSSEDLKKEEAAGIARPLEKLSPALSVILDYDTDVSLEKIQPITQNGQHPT
D(2) dopamine receptor, sequence (P14416 whole entry): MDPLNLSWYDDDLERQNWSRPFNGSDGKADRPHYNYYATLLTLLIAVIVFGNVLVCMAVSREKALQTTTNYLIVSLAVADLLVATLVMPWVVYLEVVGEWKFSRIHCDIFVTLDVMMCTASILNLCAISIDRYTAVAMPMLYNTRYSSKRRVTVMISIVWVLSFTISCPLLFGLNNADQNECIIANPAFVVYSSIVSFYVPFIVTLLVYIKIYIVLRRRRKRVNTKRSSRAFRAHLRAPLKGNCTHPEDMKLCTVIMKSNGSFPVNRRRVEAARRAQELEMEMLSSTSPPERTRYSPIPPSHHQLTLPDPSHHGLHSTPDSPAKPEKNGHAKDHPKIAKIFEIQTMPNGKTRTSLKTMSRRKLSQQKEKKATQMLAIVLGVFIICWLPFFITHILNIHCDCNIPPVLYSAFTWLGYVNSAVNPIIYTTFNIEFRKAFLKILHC

In general, Ki refers to the dissociation constant of the complex between target and ligand, obtained from inhibition or displacement. Lower therefore signals a stronger hold on the target. Consider `CCCN1CCc2cc(Cl)c(O)cc2[C@@H]1c1ccccc1`, for which the Ki at D(1A) dopamine receptor is 178 nM; on D(2) dopamine receptor, 1910 nM. Further, in assay [1], the “Log Ki” value is -6.69.

Consider `CN1CCc2cc(Cl)c(O)cc2[C@H]1c1ccccc1`, for which the Ki is 447 nM at D(1A) dopamine receptor and 19100 nM at D(2) dopamine receptor. Besides, the “Log Ki” value in assay [1] is recorded as -6.25.

Consider `CN1CCc2cc(Cl)c(O)cc2[C@@H]1c1ccccc1`, for which the values for the inhibitory constant (Ki) on D(1A) dopamine receptor and at D(2) dopamine receptor were 6.61 nM and 1860 nM, respectively. In addition, the “Log Ki” value in assay [1] is given as -8.18.

Take `Oc1cc2c(cc1Cl)CNC[C@H]2c1ccccc1`: the inhibition constant Ki on D(1A) dopamine receptor was 282 nM; at D(2) dopamine receptor, 1820 nM. Further, the “Log Ki” value in assay [1] is given as -6.2.

`CN1CCc2cc(Cl)c(O)cc2[C@@H](c2ccccc2)C1` [SCH-23390]: the “Log Ki” value in assay [1] was -9.33.

`CN1CCc2cc(Cl)c(O)cc2[C@@H]1Cc1ccccc1`: the values for the Ki at D(1A) dopamine receptor and at D(2) dopamine receptor were 26.9 nM and 145 nM, respectively. Also, the “Log Ki” value in assay [1] is reported as -8.2.

As for `Oc1cc2c(cc1Cl)CCN[C@H]2c1ccccc1`, the inhibition constant Ki on D(1A) dopamine receptor was 141 nM; at D(2) dopamine receptor, 3720 nM. For the same compound, the “Log Ki” value in assay [1] was -6.96.

Consider `CN1Cc2cc(Cl)c(O)cc2[C@H](c2ccccc2)C1`, for which the inhibition constant Ki at D(1A) dopamine receptor is 87.1 nM; on D(2) dopamine receptor it was 263 nM. Also, the “Log Ki” value in assay [1] is on record as -6.99.
